Laboratory results: US6800674B2, “Anthraquinone compound and water-based ink-jet recording ink containing the compound” (Mitsui Chemicals, Inc., priority 2000, dated 2004)

Assay: Evaluation of water resistance (OD1 after/before dipping in water)
Type: physicochemical
Conditions: aqueous ink, ink production process Example 1; OD1 after dipping in water and air-drying
Procedure: (§1) Glycerin and water were added to the dispersion (A) of colored resin fine particles to obtain aqueous ink having a solid content of 15% by weight. This aqueous ink was used, and filled in an ink cartridge for a piezo-type ink jet printer, and printing and image recording were conducted with the same printer. The test was conducted on the following items.
(D) Evaluation of Water Resistance
With respect to a printed portion of a plain paper having a recorded image thereon for test, printing density (OD value) was measured with a reflection densitometer before dipping in water and after dipping in water and air-drying. Water resistance was evaluated upon comparing OD1.
OD1=(OD value after dipping in water and air-drying)/(OD value before dipping in water)×100[%]

Row | SMILES | D (Evaluation of water resistance)
1 | Nc1ccccc1Sc1cc(O)c2c(c1N)C(=O)c1ccccc1C2=O [compound 22] | ◯ (OD value is 70 to less than 80%.)
2 | CCCCC(CC)COC(=O)CCSc1cc(O)c2c(c1N)C(=O)c1ccccc1C2=O (stereo not drawn) [compound 29] | ◯ (OD value is 70 to less than 80%.)
3 | Nc1c(Oc2ccc(C(c3ccccc3)c3ccccc3)cc2)cc(O)c2c1C(=O)c1ccccc1C2=O [compound 12] | ⊚ (OD value is 80 to less than 90%.)
4 | Nc1c(Oc2ccccc2NC(=O)c2ccccc2)cc(O)c2c1C(=O)c1ccccc1C2=O [compound 35] | ◯ (OD value is 70 to less than 80%.)
5 | CCCCC(CC)COC(=O)CSc1ccc(Oc2cc(O)c3c(c2N)C(=O)c2ccccc2C3=O)cc1 (stereo not drawn) [compound 40] | ◯ (OD value is 70 to less than 80%.)
6 | Nc1c(SCCOCCSc2cc(O)c3c(c2N)C(=O)c2ccccc2C3=O)cc(O)c2c1C(=O)c1ccccc1C2=O [compound 31] | ◯ (OD value is 70 to less than 80%.)
7 | CCCCCCCCSc1cc(O)c2c(c1N)C(=O)c1ccccc1C2=O [compound 21] | ◯ (OD value is 70 to less than 80%.)
8 | CCCCCCCCCCCCCCCCCCOC(=O)CSc1cc(O)c2c(c1N)C(=O)c1ccccc1C2=O [compound 27] | ◯ (OD value is 70 to less than 80%.)
9 | Nc1c(Oc2cccc(C(F)(F)F)c2)cc(O)c2c1C(=O)c1ccccc1C2=O [compound 37] | ◯ (OD value is 70 to less than 80%.)
10 | CCCCC(CC)COC(=O)CSc1cc(O)c2c(c1N)C(=O)c1ccccc1C2=O (stereo not drawn) [compound 30] | ◯ (OD value is 70 to less than 80%.)
11 | CCCCCCCCOC(=O)CSc1cc(O)c2c(c1N)C(=O)c1ccccc1C2=O [compound 20] | ◯ (OD value is 70 to less than 80%.)
12 | CCCCOC(=O)CSc1cc(O)c2c(c1N)C(=O)c1ccccc1C2=O [compound 32] | ◯ (OD value is 70 to less than 80%.)
13 | Nc1c(Oc2ccccc2)cc(O)c2c1C(=O)c1ccccc1C2=O [compound 23] | ◯ (OD value is 70 to less than 80%.)
14 | CCCCC(CC)CC(=O)Nc1ccc(O)cc1Sc1cc(O)c2c(c1N)C(=O)c1ccccc1C2=O (stereo not drawn) [compound 19] | ◯ (OD value is 70 to less than 80%.)

More lines, now with the values ahead:

Row | D (Evaluation of water resistance) | SMILES
15 | ◯ (OD value is 70 to less than 80%.) | CCCCCCCCCc1ccc(Oc2cc(O)c3c(c2N)C(=O)c2ccccc2C3=O)cc1 [compound 38]
16 | ◯ (OD value is 70 to less than 80%.) | CCCCC(CC)COC(=O)CSc1cccc(Oc2cc(O)c3c(c2N)C(=O)c2ccccc2C3=O)c1 (stereo not drawn) [compound 26]
17 | ⊚⊚ (OD value is 90 to 100%.) | CCCN(CCC)c1cccc(Oc2cc(O)c3c(c2N)C(=O)c2ccccc2C3=O)c1 [compound 8]
18 | ⊚⊚ (OD value is 90 to 100%.) | CCCC(C)N(c1cccc(Oc2cc(O)c3c(c2N)C(=O)c2ccccc2C3=O)c1)C(C)CCC (stereo not drawn) [compound 11]
19 | ⊚⊚ (OD value is 90 to 100%.) | CCCCCCN(CCCCCC)c1cccc(Oc2cc(O)c3c(c2N)C(=O)c2cccc(C)c2C3=O)c1 [compound 18]
20 | ⊚⊚ (OD value is 90 to 100%.) | CCN(CC)c1cccc(Oc2cc(O)c3c(c2N)C(=O)c2ccccc2C3=O)c1 [compound 7]
21 | ◯ (OD value is 70 to less than 80%.) | CCCCN(CCCC)c1cccc(CCOc2cc(O)c3c(c2N)C(=O)c2ccccc2C3=O)c1 [compound 36]
22 | ◯ (OD value is 70 to less than 80%.) | CCCCC(CC)COC(=O)CSc1ccccc1Oc1cc(O)c2c(c1N)C(=O)c1ccccc1C2=O (stereo not drawn) [compound 28]
23 | ◯ (OD value is 70 to less than 80%.) | CCCCC(CC)C(=O)Nc1ccccc1Oc1cc(O)c2c(c1N)C(=O)c1ccccc1C2=O (stereo not drawn) [compound 33]
24 | ◯ (OD value is 70 to less than 80%.) | CCCCC(CC)C(=O)Oc1ccc(Oc2cc(O)c3c(c2N)C(=O)c2ccccc2C3=O)cc1 (stereo not drawn) [compound 39]
25 | ◯ (OD value is 70 to less than 80%.) | CCCCC(CC)C(=O)Nc1cccc(Oc2cc(O)c3c(c2N)C(=O)c2ccccc2C3=O)c1 (stereo not drawn) [compound 34]
26 | ◯ (OD value is 70 to less than 80%.) | Cc1ccc(CCCOc2cc(O)c3c(c2N)C(=O)c2ccccc2C3=O)cc1 [compound 25]
27 | ⊚⊚ (OD value is 90 to 100%.) | CCCCCCCCN(CCCCCCCC)c1cccc(Oc2cc(O)c3c(c2N)C(=O)c2ccccc2C3=O)c1 [Coloring matter No. 1]
28 | ◯ (OD value is 70 to less than 80%.) | Cc1cccc(Oc2cc(O)c3c(c2N)C(=O)c2ccccc2C3=O)c1 [compound 24]

Same assay, conditions: aqueous ink, ink production process Example 2; OD1 after dipping in water and air-drying

Row | D (Evaluation of water resistance) | SMILES
29 | ⊚⊚ (OD value is 90 to 100%.) | CCCN(CCC)c1cccc(Oc2cc(O)c3c(c2N)C(=O)c2ccccc2C3=O)c1 [compound 8]
30 | ⊚ (OD value is 80 to less than 90%.) | Nc1c(Oc2ccc(C(c3ccccc3)c3ccccc3)cc2)cc(O)c2c1C(=O)c1ccccc1C2=O [compound 12]
31 | ⊚⊚ (OD value is 90 to 100%.) | CCCC(C)N(c1cccc(Oc2cc(O)c3c(c2N)C(=O)c2ccccc2C3=O)c1)C(C)CCC (stereo not drawn) [compound 11]
32 | ⊚⊚ (OD value is 90 to 100%.) | CCCCCCN(CCCCCC)c1cccc(Oc2cc(O)c3c(c2N)C(=O)c2cccc(C)c2C3=O)c1 [compound 18]
33 | ⊚⊚ (OD value is 90 to 100%.) | CCN(CC)c1cccc(Oc2cc(O)c3c(c2N)C(=O)c2ccccc2C3=O)c1 [compound 7]

Assay: Evaluation of light fastness (xenon fadeometer, OD2)
Type: physicochemical
Conditions: aqueous ink, ink production process Example 2; OD2 after 100 hours of irradiation

Row | E (Evaluation of light fastness) | SMILES
34 | ⊚⊚ (OD value is 90 to 100%.) | CCCN(CCC)c1cccc(Oc2cc(O)c3c(c2N)C(=O)c2ccccc2C3=O)c1 [compound 8]
35 | ◯ (OD value is 70 to less than 80%.) | Nc1c(Oc2ccc(C(c3ccccc3)c3ccccc3)cc2)cc(O)c2c1C(=O)c1ccccc1C2=O [compound 12]
36 | ⊚⊚ (OD value is 90 to 100%.) | CCCC(C)N(c1cccc(Oc2cc(O)c3c(c2N)C(=O)c2ccccc2C3=O)c1)C(C)CCC (stereo not drawn) [compound 11]
37 | ⊚⊚ (OD value is 90 to 100%.) | CCCCCCN(CCCCCC)c1cccc(Oc2cc(O)c3c(c2N)C(=O)c2cccc(C)c2C3=O)c1 [compound 18]
38 | ⊚ (OD value is 80 to less than 90%.) | CCN(CC)c1cccc(Oc2cc(O)c3c(c2N)C(=O)c2ccccc2C3=O)c1 [compound 7]

Assay: as above
Type: physicochemical
Conditions: aqueous ink, ink production process Example 1; OD2 after 100 hours of irradiation
Procedure: as §1
(E) Evaluation of Light Fastness
Printing density (OD value) was measured using a xenon fadeometer (manufactured by Suga Shikenki) before irradiation and after 100 hours of irradiation. Light fastness was evaluated upon comparing OD2.
OD2=(OD value after irradiation)/(OD value before irradiation)×100[%]

Row | SMILES | E (Evaluation of light fastness)
39 | Nc1ccccc1Sc1cc(O)c2c(c1N)C(=O)c1ccccc1C2=O [compound 22] | Δ (OD value is 50 to less than 70%.)
40 | CCCCC(CC)COC(=O)CCSc1cc(O)c2c(c1N)C(=O)c1ccccc1C2=O (stereo not drawn) [compound 29] | Δ (OD value is 50 to less than 70%.)
41 | Nc1c(Oc2ccc(C(c3ccccc3)c3ccccc3)cc2)cc(O)c2c1C(=O)c1ccccc1C2=O [compound 12] | ◯ (OD value is 70 to less than 80%.)
42 | Nc1c(Oc2ccccc2NC(=O)c2ccccc2)cc(O)c2c1C(=O)c1ccccc1C2=O [compound 35] | ◯ (OD value is 70 to less than 80%.)
43 | CCCCC(CC)COC(=O)CSc1ccc(Oc2cc(O)c3c(c2N)C(=O)c2ccccc2C3=O)cc1 (stereo not drawn) [compound 40] | ◯ (OD value is 70 to less than 80%.)
44 | Nc1c(SCCOCCSc2cc(O)c3c(c2N)C(=O)c2ccccc2C3=O)cc(O)c2c1C(=O)c1ccccc1C2=O [compound 31] | Δ (OD value is 50 to less than 70%.)
45 | CCCCCCCCSc1cc(O)c2c(c1N)C(=O)c1ccccc1C2=O [compound 21] | Δ (OD value is 50 to less than 70%.)
46 | CCCCCCCCCCCCCCCCCCOC(=O)CSc1cc(O)c2c(c1N)C(=O)c1ccccc1C2=O [compound 27] | Δ (OD value is 50 to less than 70%.)
47 | Nc1c(Oc2cccc(C(F)(F)F)c2)cc(O)c2c1C(=O)c1ccccc1C2=O [compound 37] | ◯ (OD value is 70 to less than 80%.)
48 | CCCCC(CC)COC(=O)CSc1cc(O)c2c(c1N)C(=O)c1ccccc1C2=O (stereo not drawn) [compound 30] | Δ (OD value is 50 to less than 70%.)
49 | CCCCCCCCOC(=O)CSc1cc(O)c2c(c1N)C(=O)c1ccccc1C2=O [compound 20] | Δ (OD value is 50 to less than 70%.)
50 | CCCCOC(=O)CSc1cc(O)c2c(c1N)C(=O)c1ccccc1C2=O [compound 32] | Δ (OD value is 50 to less than 70%.)
51 | Nc1c(Oc2ccccc2)cc(O)c2c1C(=O)c1ccccc1C2=O [compound 23] | Δ (OD value is 50 to less than 70%.)
52 | CCCCC(CC)CC(=O)Nc1ccc(O)cc1Sc1cc(O)c2c(c1N)C(=O)c1ccccc1C2=O (stereo not drawn) [compound 19] | Δ (OD value is 50 to less than 70%.)

Further lines, results first:

Row | E (Evaluation of light fastness) | SMILES
53 | ◯ (OD value is 70 to less than 80%.) | CCCCCCCCCc1ccc(Oc2cc(O)c3c(c2N)C(=O)c2ccccc2C3=O)cc1 [compound 38]
54 | ◯ (OD value is 70 to less than 80%.) | CCCCC(CC)COC(=O)CSc1cccc(Oc2cc(O)c3c(c2N)C(=O)c2ccccc2C3=O)c1 (stereo not drawn) [compound 26]
55 | ⊚⊚ (OD value is 90 to 100%.) | CCCN(CCC)c1cccc(Oc2cc(O)c3c(c2N)C(=O)c2ccccc2C3=O)c1 [compound 8]
56 | ⊚⊚ (OD value is 90 to 100%.) | CCCC(C)N(c1cccc(Oc2cc(O)c3c(c2N)C(=O)c2ccccc2C3=O)c1)C(C)CCC (stereo not drawn) [compound 11]
57 | ⊚⊚ (OD value is 90 to 100%.) | CCCCCCN(CCCCCC)c1cccc(Oc2cc(O)c3c(c2N)C(=O)c2cccc(C)c2C3=O)c1 [compound 18]
58 | ⊚ (OD value is 80 to less than 90%.) | CCN(CC)c1cccc(Oc2cc(O)c3c(c2N)C(=O)c2ccccc2C3=O)c1 [compound 7]
59 | ◯ (OD value is 70 to less than 80%.) | CCCCN(CCCC)c1cccc(CCOc2cc(O)c3c(c2N)C(=O)c2ccccc2C3=O)c1 [compound 36]
60 | ◯ (OD value is 70 to less than 80%.) | CCCCC(CC)COC(=O)CSc1ccccc1Oc1cc(O)c2c(c1N)C(=O)c1ccccc1C2=O (stereo not drawn) [compound 28]
61 | ◯ (OD value is 70 to less than 80%.) | CCCCC(CC)C(=O)Nc1ccccc1Oc1cc(O)c2c(c1N)C(=O)c1ccccc1C2=O (stereo not drawn) [compound 33]
62 | ◯ (OD value is 70 to less than 80%.) | CCCCC(CC)C(=O)Oc1ccc(Oc2cc(O)c3c(c2N)C(=O)c2ccccc2C3=O)cc1 (stereo not drawn) [compound 39]
63 | ◯ (OD value is 70 to less than 80%.) | CCCCC(CC)C(=O)Nc1cccc(Oc2cc(O)c3c(c2N)C(=O)c2ccccc2C3=O)c1 (stereo not drawn) [compound 34]
64 | ◯ (OD value is 70 to less than 80%.) | Cc1ccc(CCCOc2cc(O)c3c(c2N)C(=O)c2ccccc2C3=O)cc1 [compound 25]
65 | ⊚⊚ (OD value is 90 to 100%.) | CCCCCCCCN(CCCCCCCC)c1cccc(Oc2cc(O)c3c(c2N)C(=O)c2ccccc2C3=O)c1 [Coloring matter No. 1]
66 | ◯ (OD value is 70 to less than 80%.) | Cc1cccc(Oc2cc(O)c3c(c2N)C(=O)c2ccccc2C3=O)c1 [compound 24]
